Tests used:
ApoB mRNA = test: Suppression of gene expression by HA derivatives containing nucleic acid (transfection of HepG2 cells, quantitative real-time PCR); assay type: cell-based, Human; conditions: siRNA 200 nM, 24 hours
Method: ApoB (sense strand: [NT] ID No. 1, number of nucleotides: 21), antisense strand: 3'-[…] ID No. 2, number of nucleotides: 23)) was used as siRNA. First, an aqueous solution of 0.5 mg/mL siRNA and 0.1-M Hepes buffer were mixed, to which 6 mg/mL aqueous solutions of the HA derivatives obtained in Examples 2 and 4 were added to an N/P ratio of 10 or 20 and was pipetted to prepare agents containing nucleic acid (the final concentration of siRNA was 800 nM and the final concentration of Hepes was 10 mM). In order to assess suppression effects of the HA derivatives containing nucleic acid obtained in Example 8-1 on gene expression, a transfection experiment was performed to HepG2 cells. The sucrose solutions containing the HA derivatives containing nucleic acid were added to a 96-well plate. HepG2 cells suspended in DMEM supplemented with 10% FBS was added to 1×10^4 cells/well and cultured for 24 hours. The final concentration of siRNA in transfection was 200 nM. Total RNA was extracted and purified according to the manual using a QIAGEN RNeasy 96 kit. By using the RNA-to-Ct 1 Step kit manufactured by Thermo Fisher Scientific, quantitative real-time PCR was performed on the target ApoB mRNA and GAPDH mRNA as the housekeeping gene using the following primers according to the instruction manual. For the quantitative real-time PCR, Rotor-Gene Q manufactured by QIAGEN was used. […]

[1] = Assessment of intraocular migration of eye drops (fluorescent-labeled HA derivative, confocal microscope); assay type: in vivo; conditions: mice, 3 μL eye drops to both eyes, 1 hour, frozen sections
Method: The 10k-HA-Chol-17%/ArgNH2-10%/EtOH-67%/FL synthesized in Example 2-26 was dissolved in 10% sucrose solution to a concentration of 50 mg/mL, and 3 μL of the resulting solution was applied to both eyes of mice. Both eyeballs were taken out after 1 hour and frozen sections were prepared. […] On the other hand, carboxyfluorescein was dissolved in 10% sucrose solution to a concentration of 0.0568 mg/mL, 3 μL of the resulting solution was applied to both eyes of mice, and an observation was performed as in the case of the 10k-HA-Chol-17%/ArgNH2-10%/EtOH-67%/FL. As a result, fluorescence from carboxyfluorescein was not observed in any tissues of the eyes including the cornea, conjunctiva and ciliary body.

Row | distribution in the conjunctiva and the ciliary body by fluorescence detection [1] | distribution in the cornea by fluorescence detection [1] | Substance | expression of ApoB (ApoB mRNA)
1 | – | – | siRNA alone: ApoB siRNA, sense strand SEQ ID No. 1 (21 nucleotides), antisense strand SEQ ID No. 2 (23 nucleotides) (sense GUCAUCACACUGAAUACCAAU; antisense AUUGGUAUUCAGUGUGAUGACAC; listed as RNA, chemistry not given here) | does not have an effect of suppressing gene expression
2 | not observed | not observed | carboxyfluorescein | –
